“And” between values parts separate entries of the source, which are not always exact repeats. Equal values may be shown once.
Legend:
[1] = Competition with DMSO for hydroxyl radicals (Fe3+/ascorbic acid system); type: biochemical; conditions: hydroxyl radical scavenging
Procedure: Competition of the novel substituted acids with DMSO for hydroxyl radicals was measured. Hydroxyl radicals were generated using the Fe^3+/ascorbic acid system and expressed as a percentage inhibition of formaldehyde production in the presence of each compound at 100 μM (Table 2). All the synthesized derivatives strongly scavenge hydroxyl radicals at 100 μM in comparison to the reference compound Trolox.
The hydroxyl radicals generated by the Fe^3+/ascorbic acid system, were detected by the determination of formaldehyde produced from the oxidation of DMSO (Table 2). Trolox was used as reference compound [17, 18, 28].

soybean lipoxygenase = molecular target: T1, soybean lipoxygenase (Glycine max, UniProt P08170); test: Soybean lipoxygenase inhibition in vitro; type: biochemical; conditions: sodium linoleate 0.1 mM, 234 nm, read-out: LOX IC50
T1 construct: purchased Sigma Chemical, Co. (St. Louis)
T1 sequence (P08170 1-839): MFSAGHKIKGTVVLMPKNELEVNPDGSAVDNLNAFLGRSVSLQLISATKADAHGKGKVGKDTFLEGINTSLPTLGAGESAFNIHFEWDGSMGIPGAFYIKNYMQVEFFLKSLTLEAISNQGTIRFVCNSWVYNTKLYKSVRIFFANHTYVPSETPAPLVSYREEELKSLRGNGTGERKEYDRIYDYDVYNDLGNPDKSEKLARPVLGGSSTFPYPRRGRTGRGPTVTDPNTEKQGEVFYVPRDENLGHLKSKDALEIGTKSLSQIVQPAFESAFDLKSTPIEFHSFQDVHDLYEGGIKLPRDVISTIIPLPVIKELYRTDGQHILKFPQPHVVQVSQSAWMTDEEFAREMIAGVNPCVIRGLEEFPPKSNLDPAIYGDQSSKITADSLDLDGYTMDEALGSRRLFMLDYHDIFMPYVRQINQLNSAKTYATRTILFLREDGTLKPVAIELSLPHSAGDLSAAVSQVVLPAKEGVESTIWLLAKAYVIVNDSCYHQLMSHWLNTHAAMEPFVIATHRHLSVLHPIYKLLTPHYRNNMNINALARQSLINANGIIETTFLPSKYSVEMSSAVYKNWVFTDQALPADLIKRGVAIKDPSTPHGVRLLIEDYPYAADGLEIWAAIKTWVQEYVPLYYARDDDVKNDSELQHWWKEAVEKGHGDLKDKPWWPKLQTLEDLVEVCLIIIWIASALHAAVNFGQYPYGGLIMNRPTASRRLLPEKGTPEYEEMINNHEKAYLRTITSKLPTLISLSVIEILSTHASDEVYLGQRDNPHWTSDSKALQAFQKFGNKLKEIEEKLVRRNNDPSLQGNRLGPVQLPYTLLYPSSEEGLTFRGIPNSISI
Procedure: Many research groups have used readily obtainable soybean lipoxygenase, which is a homologue of mammalian lipoxygenase and well studied. Due to its availability and its well-characterised crystal structure, soybean LOX was selected to be used in this study.
In vitro study was evaluated as reported previously by our group. The tested compounds were incubated at room temperature with sodium linoleate (0.1 mM) and 0.2 mL of enzyme solution (1/9 × 104 w/v in saline). The method was based to the conversion of sodium linoleate to 13-hydroperoxylinoleic acid at 234 nm. […] In order to determine the IC50 values different concentrations were used.

[2] = ABTS+• decolorization assay; type: biochemical; conditions: 1 min, 734 nm
Procedure: No role for lipophilicity was found. Oxidation of ABTS with potassium persulfate generates directly the ABTS radical cation (ABTS^+•) with no involvement of an intermediary radical, which is then reduced upon adding electron-donating antioxidants.
In order to produce the ABTS radical cation (ABTS^+•), ABTS stock solution in water (7 mM) was mixed with potassium persulfate (2.45 mM) and left in the dark at room temperature for 12–16 h before use. Our published experimental technique was used (Table 2). The results are recorded after 1 min of the mixing solutions at 734 nm. The results were compared to the appropriate standard inhibitor Trolox.

[3] = Reducing activity of the stable radical DPPH; type: biochemical
Procedure: The substituted acids were monitored for the antioxidant activity by the use of the stable 2,2-diphenyl-1-picrylhydrazyl radical (DPPH) at concentration 50 µM and 100 µM after 20 and 60 min (Table 1). In this assay the DPPH radical is reduced by single electron transfer from the antioxidant. Strong antioxidants are the phenoxide anions from phenolic compounds like catechol and derivatives, such as nordihydroguaretic acid (NDGA), the reference compound. The compounds presented medium reducing abilities from 29–61%, due to steric reasons; small differences were found among the compounds with time and concentration. 4-Br-substituted-3 phenyl acetic acid derivatives (Series I) are equipotent to 4-OH-substituted-3 phenyl acetic acid derivatives (Series II). No differences were observed between 4i and 5i and 4ii and 5ii.
To a solution of DPPH in absolute ethanol an equal volume of the compounds dissolved in DMSO was added. The final concentrations of the measured solutions of the novel acids were 50 and 100 µM starting from a stock solution (10 mM) in DMSO. The absorbance was recorded at 517 nm, after 20 and 60 min at room temperature (Table 1).

[4] = Inhibition of linoleic acid peroxidation (AAPH); type: biochemical; conditions: anti-lipid peroxidation
Text: We also used water-soluble 2,2′-[…](2-amidinopropane) hydrochloride (AAPH) for the generation of free radicals. AAPH has been extensively used as a clean and controllable source of thermally produced alkylperoxyl free radicals. The peroxyl radicals produced by the action of AAPH show total similarity to cellular activities such as lipid peroxidation. […] It seems that the presence of 3,5-di-tert-butyl-group greatly enhances protection against lipid peroxidation (6i/ii and 7i/ii followed by 3ii and 5ii). The lipid peroxidation inhibitory activity seems to be concentration dependent.
2,2’-Azobis(2-amidinopropane) dihydrochloride (AAPH) was used as a free radical initiator to start the oxidation reaction. The method was based on the production of conjugated diene hydroperoxide by oxidation of linoleic acid at 234 nm expressed as an increased absorption. Trolox was used as reference compound (93%) (Table 2).

[5] = Experimental lipophilicity as RM values by reversed phase TLC (RPTLC); type: physicochemical; conditions: methanol/water 77/23 with 0.1% acetic acid, 24 °C, average of at least 5 measurements
Text: Lipophilicity is a physicochemical property correlated with the biological activity. Lipophilicity influences ligand-target binding interactions, solubility, absorption, distribution, bioavailability, metabolism and elimination (ADME) and toxicological outcomes. The lipophilicity of the novel cinnamic acids was experimentally measured as RM values using a reverse phase thin layer chromatography (RPTLC) method. This is acknowledged as a reliable, fast and convenient approach for expressing lipophilicity (Table 1). RM relates to the thermodynamic Rf value in a logarithmic form. Bate-Smith and Westall firstly determined lipophilicity as RM values in 1950 [31]. The Br-substituted derivatives 1i–7i are more lipophilic than the OH-substituted ones 1ii–7ii which can be easily explained by their structural characteristics.
Reversed phase TLC (RPTLC) was performed on silica gel plates impregnated with 55% (v/v) liquid paraffin in light petroleum ether. The mobile phase was a methanol/water mixture (77/23, v/v) containing 0.1% of acetic acid. The plates were developed in closed chromatography tanks saturated with the mobile phase at 24 °C. Spots were detected under UV light. RM values were determined from the corresponding Rf values (from five individual measurements) using the equation RM = log[(1/Rf) − 1] [17, 18, 28].

[6] = Non enzymatic assay of superoxide radical scavenging activity (PMS/NADH/NBT); type: biochemical
Procedure: Superoxide radical is a main cause of oxidative stress, expressing its biological toxicity by the inactivation of iron-sulfur cluster containing enzymes. The superoxide anion radical (O2^−^•) is less toxic than the hydroxyl radical, but still being one of the most known toxic reactive oxygen species (ROS). In this assay the superoxide anion radicals were generated by a non-enzymatically assay and the compounds are tested at 100 μM final concentration (Table 2). Caffeic acid (CA) has been used as a reference compound. Compound 4ii presented the highest activity, followed by compound 3ii. We succeeded to derive a quantitative-structure activity relationship model for this activity in which the topological polar surface (TPAS) of the compounds seem to govern the superoxide anion scavenging activity:% Superoxide Anion Scavenging Activity (100 µM) = 0.019 (±0.007) TPSA + 0.813 (±0.358) n = 6, r = 0.962, r^2 = 0.926, q^2 = 0.694, s = 0.122, Q = 7.885, F1,6 = 3.701, α = 0.1 clog P vs. TPSA 0.
The superoxide radicals are generated by mixing N-methylphenazonium methyl sulfate (PMS), NADH and air–oxygen and determined by the nitroblue tetrazolium method and measured at 560 nm (Table 2). Caffeic acid was used as reference compound [17, 18, 28].

SMILES | melting point [°C] | IC50 (soybean lipoxygenase) [µM] | RM (±SD) [5] | HO•% 100 µM [1] [%] | ABTS+•% 100 µM [2] | RA% 50 µM 20 min [3] [%] | RA% 50 µM 60 min [3] [%] | RA% 100 µM 20 min [3] [%] | RA% 100 µM 60 min [3] [%] | AAPH% 50 µM [4] [%] | AAPH% 100 µM [4] [%] | AAPH lipid peroxidation inhibition at 10 μΜ ([4]; 10 μΜ) [%] | O2−•% 100 µM [6] [%]
CC(Cc1ccc(O)c(O)c1)C(C)Cc1ccc(O)c(O)c1 (stereo not shown) [NDGA, nordihydroguaretic acid, reference compound] | – | – | – | – | – | 81 | 83 | 87 | 93 | – | – | – | –
Cc1c(C)c2c(c(C)c1O)CCC(C)(C(=O)O)O2 (stereo not shown) [Trolox, reference compound] | – | – | – | 73 | 88% | – | – | – | – | – | 93 | – | –
O=C(O)C(=Cc1ccc(OCc2ccc(Br)cc2)cc1)c1ccc(Br)cc1 [Compound 2i, 3-(4-((4-Bromobenzyl)oxy)phenyl)-2-(4-bromophenyl)acrylic acid] | – | 76 | 0.605 (0.016) | 95 | 32% | 35 | 34 | 37 | 40 | 48 | 96 | – | –
O=C(O)C(=Cc1ccc(OCc2ccc(Br)cc2)cc1)c1ccc(O)cc1 [Compound 2ii, 3-(4-((4-Bromobenzyl)oxy)phenyl)-2-(4-hydroxyphenyl)acrylic acid] | – | 77 | 0.061 (0.007) | 99 | 47% | 36 | 37 | 43 | 56 | 49 | 87 | – | –
O=C(O)/C=C/c1ccc(O)c(O)c1 [CA, Caffeic acid, reference compound] | – | – | – | – | – | – | – | – | – | – | – | – | 23

Further lines, with some results ahead:

melting point [°C] | IC50 (soybean lipoxygenase) [µM] | RM (±SD) [5] | SMILES | HO•% 100 µM [1] [%] | ABTS+•% 100 µM [2] | RA% 50 µM 20 min [3] [%] | RA% 50 µM 60 min [3] [%] | RA% 100 µM 20 min [3] [%] | RA% 100 µM 60 min [3] [%] | AAPH% 50 µM [4] [%] | AAPH% 100 µM [4] [%] | AAPH lipid peroxidation inhibition at 10 μΜ ([4]; 10 μΜ) [%] | O2−•% 100 µM [6] [%]
134 to 136 | 74 | 0.622 (0.025) | CC(C)(C)c1cc(C=C(C(=O)O)c2ccc(O)cc2)c(O)c(C(C)(C)C)c1 [Compound 6ii, 3-(3,5-di-tert-Butyl-2-hydroxyphenyl)-2-(4-hydroxyphenyl)acrylic acid] | 100 | 38% | 43 | 36 | 31 | 36 | 64 | 96 | – | –
168 to 170 | 60 | 0.480 (0.035) | CC(C)(C)c1cc(C=C(C(=O)O)c2ccc(Br)cc2)c(O)c(C(C)(C)C)c1 [Compound 6i, 2-(4-Bromophenyl)-3-(3,5-di-tert-butyl-2-hydroxyphenyl)acrylic acid] | 100 | 53% | 38 | 36 | 44 | 39 | 56 | 100 | – | –
128 to 129 | 77.5 | 0.683 (0.015) | CC(=Cc1ccccc1)C=C(C(=O)O)c1ccc(Br)cc1 [Compound 5i, 2-(4-Bromophenyl)-4-methyl-5-phenylpenta-2,4-dienoic acid] | 82 | 30% | 33 | 33 | 36 | 38 | 10 | 98 | 9.6 | –
120 to 121 | 7.4 | 0.582 (0.037) | CN(C)c1ccc(C=CC=C(C(=O)O)c2ccc(Br)cc2)cc1 [Compound 3i, 2-(4-Bromophenyl)-5-(4-(dimethylamino)phenyl)penta-2,4-dienoic acid] | 100 | 83.4% and 83% | 34 | 37 | 48 | 51 | 43 | 88 | – | –
